Target: potassium channels (Sus scrofa, UniProt F1SR11)
Assay: Functional potassium channel opening activity in isolated Landrace pig bladder strips (field-stimulated twitch)
Settings: for Landrace Pig Bladder Index: ED50 for P1075 divided by ED50 for the test agonist, averaged over tissues; for Landrace Pig Bladder pD2: negative logarithm of ED50; for Emax: pig; for Emax / Landrace Pig Bladder Efficacy (% P1075): maximal efficacy relative to P1075, field stimulation 0.05Hz, 0.5 milli-seconds at 20 volts
Method: The entire bladder was removed and ed into Krebs Ringer bicarbonate solution (composition, mM: NaCl,; dextrose, 1; KCl, 4.7; […] Propranolol (0.004 ed in all of the assays to block […]. The trigonal and dome […]. Strips 3-5 mm wide and 20 mm long were prepared from the cut in a circular fashion. The mucosal layer was removed. One end ationary glass rod and the other to a Grass FT03 transducer at a basal am. Two parallel platinum electrodes were included in the stationary ide field stimulation of 0.05Hz, 0.5 milli-seconds at 20 volts. […] Tissues were allowed to equilibrate for at least 60 minutes and primed with 80 mM KCl. A control concentration response curve (cumulative) was generated for each tissue using the potassium channel opener […] as the control agonist. […] After a 60 minute rinsing period, a concentration response curve (cumulative) was generated for the test agonist in the same fashion as that used for the control agonist […]. The maximal efficacy of each compound (expressed as % relative to […]) is reported. […] J. Physiol. 235, E97 (1980)), and agonist potencies were expressed as pD2 (the negative logarithm). Agonist potencies were also expressed as an index relative to […]. The index was calculated by dividing the ED50 for […] by the ED50 for the test agonist in a given tissue. Each tissue was used for only one test agonist, and the indices obtained from each tissue were averaged to provide an average index of potency.

Landrace Pig Bladder Index	Landrace Pig Bladder pD2	Emax [%]	Landrace Pig Bladder Efficacy (% P1075)	Compound
0.20	6.3	99	–	Cc1ccc(C2C3=C(CCCC3=O)NC3=C2S(=O)(=O)CC3)cc1[N+](=O)[O-] (single isomer, unassigned) [Example 126, 9-(4-methyl-3-nitrophenyl)-2,3 5,6,7,9-hexahydro[3. 2-b]guinolin-8(4H)-one, 1,1-dioxide]
1.2	6.6	80	–	O=C1CCCC2=C1C(c1ccc(F)c(I)c1)C1=C(CCS1(=O)=O)N2 (single isomer, unassigned) [Example 149, 9-(4-fluoro-3-iodophenyl)-2,3,5,6,7,9-hexahydrothieno[3 2-b]quinolin-8(4H)-one, 1,1-dioxide]
0.026	5.4	98	–	Cc1ccc(C2C3=C(CCCC3=O)NC3=C2S(=O)(=O)CC3)cc1C#N (single isomer, unassigned) [Example 155, 9-(3-cvano-4-methylphenyl)-2,3 5,6,7,9-hexahydrothieno[3,2-b]guinolin-8(4H)-one, 1,1-dioxide]
0.23	6.3	96	–	O=C1CCC2=C1C(c1ccc(Cl)c([N+](=O)[O-])c1)C1=C(CCS1(=O)=O)N2 (single isomer, unassigned) [Example 161]
0.12	5.6	84	–	O=C1CCCC2=C1C(c1ccc(Cl)c(Cl)c1)C1=C(CCS1(=O)=O)N2 (single isomer, unassigned; (+)) [Example 95, (+)-9-(3,4-dichlorophenyl)-2,3,5,6,7,9-hexahydrothieno[3,2-b]quinolin-8(4H)-one, 1,1-dioxide]
0.18	6.2	100	–	O=C1CCCC2=C1C(c1ccc(Cl)c([N+](=O)[O-])c1)C1=C(CCS1(=O)=O)N2 (single isomer, unassigned; (+)) [Example 99, (+)-9-(4-chloro-3-nitrophenyl)-2,3,5,6,7,9-hexahydrothieno[3.2-b]guinolin-8(4H)-one, 1,1-dioxide]
0.37	6.5	–	97	O=C1CCCC2=C1C(c1ccc(Cl)c(Cl)c1)C1=C(CCS1(=O)=O)N2 (single isomer, unassigned; (-)) [Example 96, (−)-9-(3,4-dichlorophenyl)-2,3,5,6,7,9-hexahydrothieno[3,2-b]guinolin-8(4H)-one, 1,1-dioxide]
0.17	6.4	–	100	O=C1CCCC2=C1C(c1ccc(Cl)c([N+](=O)[O-])c1)C1=C(CCS1(=O)=O)N2 (single isomer, unassigned; (-)) [Example 100, (−)-9-(4-chloro-3-nitrophenyl)-2,3,5,6,7,9-hexahydrothieno[3,2-b]quinolin-8(4H)-one, 1,1-dioxide]
0.17	6.7	–	100	O=C1CCCC2=C1C(c1ccc(F)c(Cl)c1)C1=C(CCS1(=O)=O)N2 (single isomer, unassigned; (-)) [Example 110, (−)-9-(3-chloro-4-fluorophenyl)-2,3,5,6,7,9-hexahydrothieno[3.2-b]quinolin-8(4H)-one, 1,1-dioxide]

The next lines start with the molecule.

Compound	Landrace Pig Bladder Index	Landrace Pig Bladder pD2	Emax [%]	Landrace Pig Bladder Efficacy (% P1075)
O=S1(=O)CCC2=C1C(c1ccc(F)c(Br)c1)C=C(C(F)(F)F)N2 (single isomer, unassigned) [Example 136, 7-(3-bromo-4-fluorophenyl)-5-(trifluoromethyl)-2, 3 4 7-tetrahydrothieno[3 2-b]pyridine, 1,1-dioxide]	0.073	5.9	92	–
O=C1CCC2=C1C(c1ccc(Cl)c(Cl)c1)C1=C(CCS1(=O)=O)N2 (single isomer, unassigned) [Example 146]	0.40	6.7	100	–
O=C1CCCC2=C1C(c1ccc(Br)c(Br)c1)C1=C(CCS1(=O)=O)N2 (single isomer, unassigned) [Example 147, 9-(3.4-dibromophenyl)-2,3,5,6,7,,9-hexahydrothieno[3.2-b]quinolin-8(4H)-one, 1,1-dioxide]	0.24	6.2	99	–
O=C1CCCC2=C1C(c1ccc(F)c(-c3ccco3)c1)C1=C(CCS1(=O)=O)N2 (single isomer, unassigned) [Example 165, 9-[4-fluoro-3-(2-fMrIl)phenyl]-2,3,5,6,7,9-hexahydrothieno[3,2-b]quinolin-8(4H)-one, 1,1-dioxide]	0.035	5.8	94	–
O=C1CCCC2=C1C(c1ccc(Br)s1)C1=C(CCS1(=O)=O)N2 (single isomer, unassigned) [Example 167, 9-(5-bromo-2-thienyl)-2,3,5,6,7,9-hexahydrothieno[3,2-b]quinolin-8(4H)-one, 1,1-dioxide]	0.062	5.9	100	–
O=C1CCCC2=C1C(c1cc(Br)cs1)C1=C(CCS1(=O)=O)N2 (single isomer, unassigned) [Example 180, 9-(4-bromo-2-thienyl)-2,3 5,6,7,9-hexahydrothieno[3 2-b]quinolin-8(4H)-one 1,1-dioxide]	0.036	5.5	71	–
O=C1CCC2=C1C(c1ccc(F)c(Br)c1)C1=C(CCCS1(=O)=O)N2 (single isomer, unassigned; (+)) [Example 91]	0.0034	4.6	95	–
O=C1CCCC2=C1C(c1ccc(F)c(Br)c1)C1=C(CCCS1(=O)=O)N2 (single isomer, unassigned; (+)) [Example 93, (+)-I 0-(3-bromo-4-fluorophenyl)-3,4,6,7,8,10-hexahydro-2H-thiopyrano[3 2-b]quinolin-9(5H)-one, 1,1-dioxide]	0.02	5.2	100	–
O=C1CCCC2=C1C(c1ccc3nonc3c1)C1=C(CCS1(=O)=O)N2 (single isomer, unassigned; (+)) [Example 97, (+)-9-(2. 1,3-benzoxadiazol-5-yl)-2,3,5,6,7,9-hexahydrothieno[3.2-b]quinolin-8(4H)-one, 11-dioxide]	0.059	5.7	100	–
N#Cc1cccc(C2C3=C(CCC3=O)NC3=C2S(=O)(=O)CC3)c1 (single isomer, unassigned; (+)) [Example 164]	0.0071	5.0	94	–
O=C1CCC2=C1C(c1ccc(F)c(Br)c1)C1=C(CCS1(=O)=O)N2 (single isomer, unassigned; (-)) [Example 86]	0.069	6.5	100	–
O=C1CCC2=C1C(c1ccc(F)c(Br)c1)C1=C(CCCS1(=O)=O)N2 (single isomer, unassigned; (-)) [Example 92]	0.44	6.5	–	100
O=C1CCCC2=C1C(c1ccc(F)c(Br)c1)C1=C(CCCS1(=O)=O)N2 (single isomer, unassigned; (-)) [Example 94, (−)-10-(3-bromo-4-fluorophenyl)-3,4,6,7,8,10-hexahydro-2H-thiopyrano[3,2-b]quinolin-9(5H)-one 1,1-dioxide]	0.31	6.4	–	94
O=C1CCCC2=C1C(c1ccc3nonc3c1)C1=C(CCS1(=O)=O)N2 (single isomer, unassigned; (-)) [Example 98, (−)-9-(2.1 .3-benzoxadiazol-5-yl)-2,3.5,6.7,9-hexahydrothieno[3.2-b]guinolin-8(4H)-one, 1,1-dioxide]	0.057	5.6	–	100
N#Cc1cccc(C2C3=C(CCCC3=O)NC3=C2S(=O)(=O)CC3)c1 (single isomer, unassigned; (-)) [Example 114, (−)-9-(3-cyanophenyl)-2,3,5,6,7,9-hexahydrothieno[3,2-b]quinolin-8(4H)-one, 1,1-dioxide]	0.014	4.9	97	–
O=C1CCCC2=C1C(c1ccc(F)c(C(F)(F)F)c1)C1=C(CCS1(=O)=O)N2 (single isomer, unassigned; (-)) [Example 139]	0.13	6.0	100	–
O=C1CCCC2=C1C(c1ccc(Cl)c(C(F)(F)F)c1)C1=C(CCS1(=O)=O)N2 (single isomer, unassigned; (-)) [Example 172, (−)-9-[4-chloro-3-(trifluoromethyl)vhenyl]-2,3,5,6,79-hexahydrothieno[3,2-b]quinolin-8(4H)-one, 1,1-dioxide]	0.12	6.2	100	–
